Results as given in publication PMC7002685, “Inhibition of vascular calcification by inositol phosphates derivatized with ethylene glycol oligomers” (Nature Communications, 2020).
Several values for one entry are separate records, joined by “and”; a condition that tells them apart may be missing. Identical values can stand only once. Like-named read-outs stand apart in the source and are kept apart here.

Tests used:
[1] = Urinary excretion after s.c. administration; type: in vivo, rat; details: 10 mg/kg s.c.; for Cumulative recovery from rat urine / dose excreted: healthy rats; for dose excreted: rat, urine, subcutaneous, 10 mg/kg, read-out: Cumulative recovery from rat urine
Procedure: To study urinary excretion, six animals were administered s.c. 10 mg/kg of (OEG2)2-IP4 and two animals served as blank urine controls. Animals were placed in separated metabolic cages ([…] S.p.A. Buguggiate, Italy) right after dosing, left there for the entire experiment, and urine was collected after 2, 5, 8, and 24 h. At the end of the experiment, cages were washed with 10 mL water and the washes were collected in separated tubes. Urine samples were centrifuged at 3000 × g and 4 °C for 10 min and stored at −20 °C until quantification of (OEG2)2-IP4 by LC-MS/MS. Recovery (%) was calculated using Eq. (2).2 Recovery%=OEG22IP4μg/doseμg×ratweightkg×100.

[2] = tested on: GABAA, Flunitrazepam, Central; assay: Off-target 226600; type: binding, Rat; details: 10 µM
Procedure: (§1) The potential off-target activity of 10 µM (OEG2)2-IP4 was assessed against a panel of 87 enzymes, receptors, or ion channels that are used in standard safety pharmacology screens.
(§2) 3.2. Off-target screening assay
The experiments were conducted by a contract research organization (Eurofins Panlabs Discovery
Services Taiwan, Ltd.) and details on the respective assays can be retrieved via the catalog number
provided in Supplementary Table 11 from the company’s webpage
(§3) (https://www.eurofinsdiscoveryservices.com/). […]

[3] = target: T1, Serotonin (5-Hydroxytryptamine) 5-HT2A (Homo sapiens, UniProt P28223); assay: Off-target 271650; type: binding
T1 construct: purchased Eurofins Panlabs Discovery Services Taiwan, Ltd
T1 sequence (P28223 whole entry): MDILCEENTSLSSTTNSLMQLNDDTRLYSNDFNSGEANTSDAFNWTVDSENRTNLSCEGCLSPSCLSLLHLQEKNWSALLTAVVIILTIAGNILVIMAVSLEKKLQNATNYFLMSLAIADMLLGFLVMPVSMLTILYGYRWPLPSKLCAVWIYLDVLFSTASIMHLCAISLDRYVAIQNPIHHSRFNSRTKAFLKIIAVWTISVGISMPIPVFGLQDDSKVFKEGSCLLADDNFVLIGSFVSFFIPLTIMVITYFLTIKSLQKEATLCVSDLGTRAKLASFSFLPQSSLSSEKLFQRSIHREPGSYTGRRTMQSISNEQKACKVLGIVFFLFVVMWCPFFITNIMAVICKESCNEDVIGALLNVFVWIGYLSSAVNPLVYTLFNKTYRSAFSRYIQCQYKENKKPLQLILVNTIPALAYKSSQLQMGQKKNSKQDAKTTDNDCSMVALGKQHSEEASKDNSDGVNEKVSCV
Procedure: as §1, §2
The experiments were conducted by a contract research organization (Eurofins Panlabs Discovery Services Taiwan, Ltd.) and details on the respective assays can be retrieved via the catalog number provided in Supplementary Table 11 from the company’s webpage
as §3
At sacrifice the left tibia of animals of the rat model with dietary adenine/high-phosphate-induced uremia and VC was collected, fixed with 70% v/v EtOH and embedded in methyl methacrylate. The trabecular bone compartment is known to be the most metabolic active i.e. actively re-structured bone compartment in CKD. Therefore, histomorphometric and micro-computed tomography (µCT) analysis of bone was performed on the trabecular compartment. Tibial sections were Goldner-stained for histomorphometric analysis of the proximal metaphysis using the AxioVision Release 4.5 software, as […]
described previously5. […]

COCCOCCO[C@@H]1[C@@H](OP(=O)(O)O)[C@H](OCCOCCOC)[C@@H](OP(=O)(O)O)[C@@H](OP(=O)(O)O)[C@H]1OP(=O)(O)O [(OEG2)2-IP4, 4,6-Di-O-(methoxy-diethyleneglycol)-myo-inositol-1,2,3,5-tetrakis(phosphate)]
intact dose recovered in the urine of healthy rats [1]: Forty percent
Cumulative recovery from rat urine ([1]; 2 h, individual rats Fig. 4j): 21.7% and 21.3% and 24.6% and 20.5%
Cumulative recovery from rat urine ([1]; 8 h): 49% and 34.7% and 40.7% and 37.3% and 32.9%
Cumulative recovery from rat urine ([1]; 24 h): 52.9% and 39.5% and 42.5% and 38.2% and 34.7%
dose excreted ([1]; 2 h, individual rats Fig. 4j): 26.7%
dose excreted ([1]; 8 h): 29.8%
dose excreted ([1]; 24 h): 34.4%
% Inhibition [2]: -7%
inhibition at 10 µM [3]: -1%
